For the assay, the system named is PSA. The assay can be described thus: Assay of PSA with direct-labeled sbp's (Ab1-AK11, Ab2-HRP) with and without SSIA. Format: biochemical, human. As to conditions: 600 μM ascorbic acid solution. The protocol:
The Ab1-AK11 conjugate was provided in PBS, pH 7.4 at 10 μg/ml. The Ab2-HRP conjugate was provided in PBS, pH 7.4 at 0.25 μg/ml. […] For comparison without SSIA, in a second reaction vessel, 25 μl of Ab1-AK11 conjugate, 25 μl of water, 25 μl of Ab2-HRP conjugate were added to 25 μl of sample and incubated for 15 minutes.
Each sample was analyzed according to the above assay method in triplicate. The RLU data collected for each assayed sample during the time interval of 495 milliseconds starting 125 milliseconds from start of trigger solution introduction into the reaction vessel was summed for each individual run, averaged over the triplicates for each sample and presented in Table 13. A ratio of signal to noise (S/S0) was calculated at each concentration value.

SMILES strings stand for the structures.

For `O=C1O[C@H]([C@@H](O)CO)C(O)=C1O` [Ascorbic Acid], the “RLU, With SSIA” value reads like this: (PSA 0.0 ng/mL) 180 RLU; (PSA 0.4 ng/mL) 324 RLU; (PSA 7.0 ng/mL) 3032 RLU; (PSA 101.6 ng/mL) 23119 RLU. The “S/S0, With SSIA” value stood at 1.0 (PSA 0.0 ng/mL), 1.8 (PSA 0.4 ng/mL), 16.8 (PSA 7.0 ng/mL) and 128.4 (PSA 101.6 ng/mL).

The values are drawn from US9029092B2, “Solution phase homogeneous assays” (Beckman Coulter, Inc., priority 2009, dated 2015).
